Results from patent US20120009183A1, “METHOD FOR TREATMENT OF PANCREATITIS” (Ore Pharmaceuticals Inc., priority 2007, published 2012).

How the values were obtained:
[1] = tested on: acute pancreatitis induced by cerulein; conditions: Tsang et al. (2004); cited from earlier work
[2] = tested on: spontaneous CP in male WBN/Kob rats; conditions: Kuno et al. (2003); cited from earlier work
[3] = tested on: NF-κB dependent transcription; assay: TNFα-induced activation of NF-κB in recombinant HeLa reporter cells (luciferase); format: cell-based; conditions: TNFα 20 ng/ml, 6 hours, HeLa NF-κB-luc
Description: To test the ACE2 inhibitor GL1001 for anti-inflammatory activity relevant to gastrointestinal inflammatory disease, more particularly pancreatitis, effects of the compound on activation of NF-κB dependent transcription by TNFα were examined in recombinant reporter cells containing a construct with a luciferase reporter gene under control of NF-κB dependent regulatory sequences, thereby allowing detection of NF-κB dependent transcription by measuring reporter enzyme using a conventional luciferase activity assay based on detection of generated light.
In particular, HeLa cells (American Type Culture Collection) were grown in Dulbecco's modified Eagles medium (DMEM) supplemented with 10% fetal calf serum and transiently transfected with an NF-κB-luc construct (Stratagene, Inc.), as follows (with all incubation steps at 37 C unless otherwise indicated). Cells were seeded and grown to about 70% confluency in a 10 cm cell culture dish. Plasmid DNA (10 μg) was added to 1 ml serum free DMEM media in a tube. Fugene 6 transfection reagent (30 μl) (Roche) was then pipetted slowly into the tube and the contents were gently mixed by inversion. The mixture was incubated at room temperature for 15 minutes and then added dropwise to cells in one 10 cm dish. […] Bioluminescence was then measured using a Veritas luminometer (Turner BioSystems). […]

[4] = tested on: NF-κB dependent transcription; assay: In vivo basal NF-κB dependent transcription in NF-κB::Luc reporter mice, abdominal imaging; conditions: 300 mg/kg s.c., 4 hours post administration; p<0.01
Description: GL1001 was further tested for in vivo anti-inflammatory activity by examining its effects on basal levels of NF-κB dependent transcription in mice engineered in the germline with a construct containing an NF-κB enhancer linked to a luciferase gene (i.e., NF-κB::Luc mice), such that this NF-κB reporter construct is present in all cells of the mice.
More particularly, transgenic NF-κB::Luc mice were generated using three NF-κB response elements from the Igκ light chain promoter fused to a firefly luciferase gene as described by Carlsen et al. (2002) J. Immunol. 168:1441-1446. Pronuclear microinjection of purified construct DNA was used to generate transgenic founders in the C57BL/6 XCBA/J background. Founders were subsequently back crossed to the C57BL/6 albino background. […] Signal data were also quantitated and archived using the Living Image® software. Photons of light were quantitated using an oval region of interest (ROI) of varying sizes depending on the procedure, as described further below.
To test for in vivo effects of GL1001 on basal levels of NF-κB dependent transcription, male NF-κB::Luc mice were subjected to quantitative in vivo imaging of the abdominal area (using a fixed ROI of 2.76×3.7 cm) as described above, immediately before, and at 2, […]

[5] = tested on: activator protein-1 (AP-1); assay: Basal in vivo reporter luciferase expression in AP-1::Luc mice; conditions: data not shown
[6] = tested on: NF-κB dependent transcription; assay: LPS-induced NF-κB dependent transcription in extracted organs of NF-κB::Luc mice (luciferase assay); format: in vivo; conditions: 30 mg/kg GL1001 + 0.5 mg/kg LPS vs LPS alone; stomach
Description: For luciferase assays, organs were extracted and snap frozen in liquid nitrogen. All tissue samples were placed in lysis buffer with inhibitors (Passive Lysis Buffer (Promega) and Complete Mini Protease Inhibitor Cocktail (Roche, Indianapolis, Ind.)), and were homogenized using a tissue homogenizer (Handishear, Hand-held homogenizer, VirTis, Gardiner, N.Y.). Tissue homogenates were centrifuged and clarified lysates were used for luminometer assays and western blots. For the luminometer assays, Luciferase Assay Substrate (Luciferase Assay System, Promega) was prepared as indicated by the manufacturer and placed in disposable cuvettes. […] Background luminescence readings were obtained and the background readings were subtracted from the luminescent data. Protein concentrations were determined using the BCA Protein Assay Kit (Pierce, Rockford, Ill.) following the manufacturer's protocols and analyzed using a VERSAmax tuneable microplate reader and associated Softmax Pro version 3.1.2 software (Molecular Devices, Sunnyvale Calif.). The luminescence for each of the protein lysates was calculated as arbitrary units of light per microgram of protein. […]
GL1001 was further tested for in vivo anti-inflammatory activity by examining its effects on bacterial LPS induced NF-κB dependent transcription, in NF-κB::Luc mice. […] Luciferase signal was quantitated from several regions of interest. […]

Structure (SMILES): CCCCc1nc(Cl)c(CO)n1Cc1ccc(-c2ccccc2-c2nn[nH]n2)cc1 [losartan]
- severity of acute pancreatitis induced by cerulein [1]: markedly reduced

Structure (SMILES): NCCCC[C@H](N[C@@H](CCc1ccccc1)C(=O)O)C(=O)N1CCC[C@H]1C(=O)O [lisinopril]
- pancreatic fibrosis in animal model of CP [2]: attenuated

Structure (SMILES): CC(C)C[C@H](N[C@@H](Cc1cncn1Cc1cc(Cl)cc(Cl)c1)C(=O)O)C(=O)O [GL1001, (S,S)-2-[1-carboxy-2-[3-(3,5-dichlorobenzyl)-3H-imidazol-4-yl]-ethylamino]-4-methylpentanoic acid]
- inhibition of TNFα induced activation of NF-κB dependent transcription ([3]; at 8 nM): over 80%
- maximal inhibition of TNFα induced activation of NF-κB dependent transcription ([3]; at 0.2 μM): over 95%
- inhibition of basal in vivo NF-κB dependent transcription in abdominal ROI [4]: over 40%
- effect on basal in vivo reporter luciferase expression [5]: no significant effect
- reduction of LPS induced NF-κB-dependent transcription in stomachs [6]: about 37 fold
